# Experimental data taken from PubChem BioAssay (NCI).
#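 Results reflect a 48-hour exposure of cells in 96-well plates to compound at five concentrations. TGI is the concentration that stops growth completely.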
# Assays:
# Test in all cases: DTP human tumour cell line panel, 48 h
# HT29 colon = tested on: HT29 colon
# HOP-92 NSCLC = tested on: HOP-92 NSCLC
# HCC-2998 colon = tested on: HCC-2998 colon
# NCI-H226 lung = tested on: NCI-H226 lung
# M14 melanoma = tested on: M14 melanoma
# KM12 colon = tested on: KM12 colon
# UO-31 renal = tested on: UO-31 renal
# HCT-116 colon = tested on: HCT-116 colon
# U251 CNS = tested on: U251 CNS
# A549 NSCLC = tested on: A549 NSCLC
# A498 renal = tested on: A498 renal
# IGROV1 ovarian = tested on: IGROV1 ovarian
# NCI/ADR-RES ovarian = tested on: NCI/ADR-RES ovarian
# NCI-H522 lung = tested on: NCI-H522 lung
# HL-60(TB) leukemia = tested on: HL-60(TB) leukemia
# CAKI-1 renal = tested on: CAKI-1 renal
# HS 578T breast = tested on: HS 578T breast
# TK-10 renal = tested on: TK-10 renal
# SN12C renal = tested on: SN12C renal
# COLO 205 colon = tested on: COLO 205 colon
# UACC-62 melanoma = tested on: UACC-62 melanoma
# RXF 393 renal = tested on: RXF 393 renal
# OVCAR-5 ovarian = tested on: OVCAR-5 ovarian
# PC-3 prostate = tested on: PC-3 prostate
# SK-MEL-5 melanoma = tested on: SK-MEL-5 melanoma
# UACC-257 melanoma = tested on: UACC-257 melanoma
# MDA-MB-435 = tested on: MDA-MB-435
# EKVX NSCLC = tested on: EKVX NSCLC
# OVCAR-4 ovarian = tested on: OVCAR-4 ovarian
# CCRF-CEM leukemia = tested on: CCRF-CEM leukemia
# K-562 leukemia = tested on: K-562 leukemia
# MOLT-4 leukemia = tested on: MOLT-4 leukemia
# MDA-MB-231 breast = tested on: MDA-MB-231 breast
# SR leukemia = tested on: SR leukemia
# DU-145 prostate = tested on: DU-145 prostate
# SF-268 CNS = tested on: SF-268 CNS
# OVCAR-8 ovarian = tested on: OVCAR-8 ovarian
# NCI-H460 lung = tested on: NCI-H460 lung
# SK-OV-3 ovarian = tested on: SK-OV-3 ovarian
# 786-0 renal = tested on: 786-0 renal
# ACHN renal = tested on: ACHN renal
# SNB-19 CNS = tested on: SNB-19 CNS
# SK-MEL-2 melanoma = tested on: SK-MEL-2 melanoma
# NCI-H23 lung = tested on: NCI-H23 lung
# LOX IMVI melanoma = tested on: LOX IMVI melanoma
# SK-MEL-28 melanoma = tested on: SK-MEL-28 melanoma
# MDA-N = tested on: MDA-N
# HOP-62 NSCLC = tested on: HOP-62 NSCLC
# HCT-15 colon = tested on: HCT-15 colon
# T-47D breast = tested on: T-47D breast
# SF-295 CNS = tested on: SF-295 CNS
# MALME-3M melanoma = tested on: MALME-3M melanoma
# SNB-75 CNS = tested on: SNB-75 CNS
# MCF7 breast = tested on: MCF7 breast
# RPMI-8226 leukemia = tested on: RPMI-8226 leukemia
structure (smiles),measurement,setting,value
C[C@@H](c1ccccc1)N1C[C@@H](c2ccc3c(c2)OCO3)[C@@H]2C(=O)CCC[C@@H]21,TGI,HT29 colon,> 100 µM
same,TGI,HOP-92 NSCLC,> 100 µM
same,TGI,HCC-2998 colon,76.7 µM
same,TGI,NCI-H226 lung,> 100 µM
same,TGI,M14 melanoma,36.9 µM
same,TGI,KM12 colon,> 100 µM
same,TGI,UO-31 renal,> 100 µM
same,TGI,HCT-116 colon,> 100 µM
same,TGI,U251 CNS,> 100 µM
same,TGI,A549 NSCLC,> 100 µM
same,TGI,A498 renal,59.1 µM
same,TGI,IGROV1 ovarian,> 100 µM
same,TGI,NCI/ADR-RES ovarian,> 100 µM
same,TGI,NCI-H522 lung,> 100 µM
same,TGI,HL-60(TB) leukemia,> 100 µM
same,TGI,CAKI-1 renal,> 100 µM
same,TGI,HS 578T breast,> 100 µM
same,TGI,TK-10 renal,> 100 µM
same,TGI,SN12C renal,> 100 µM
same,TGI,COLO 205 colon,42.4 µM
same,TGI,UACC-62 melanoma,52 µM
same,TGI,RXF 393 renal,> 100 µM
same,TGI,OVCAR-5 ovarian,> 100 µM
same,TGI,PC-3 prostate,> 100 µM
same,TGI,SK-MEL-5 melanoma,> 100 µM
same,TGI,UACC-257 melanoma,> 100 µM
same,TGI,MDA-MB-435,> 100 µM
same,TGI,EKVX NSCLC,> 100 µM
same,TGI,OVCAR-4 ovarian,> 100 µM
same,TGI,CCRF-CEM leukemia,> 100 µM
same,TGI,K-562 leukemia,> 100 µM
same,TGI,MOLT-4 leukemia,77.6 µM
same,TGI,MDA-MB-231 breast,> 100 µM
same,TGI,SR leukemia,> 100 µM
same,TGI,DU-145 prostate,> 100 µM
same,TGI,SF-268 CNS,> 100 µM
same,TGI,OVCAR-8 ovarian,> 100 µM
same,TGI,NCI-H460 lung,> 100 µM
same,TGI,SK-OV-3 ovarian,> 100 µM
same,TGI,786-0 renal,> 100 µM
same,TGI,ACHN renal,67.2 µM
same,TGI,SNB-19 CNS,> 100 µM
same,TGI,SK-MEL-2 melanoma,94.8 µM
same,TGI,NCI-H23 lung,> 100 µM
same,TGI,LOX IMVI melanoma,> 100 µM
same,TGI,SK-MEL-28 melanoma,76 µM
same,TGI,MDA-N,> 100 µM
same,TGI,HOP-62 NSCLC,> 100 µM
same,TGI,HCT-15 colon,> 100 µM
same,TGI,T-47D breast,> 100 µM
same,TGI,SF-295 CNS,> 100 µM
same,TGI,MALME-3M melanoma,87.5 µM
same,TGI,SNB-75 CNS,> 100 µM
same,TGI,MCF7 breast,71.5 µM
same,TGI,RPMI-8226 leukemia,92.8 µM
